Reference: ChEMBL document CHEMBL5537135, “Novel antimicrobial peptides modified with fluorinated sulfono-γ-AA having high stability and targeting multidrug-resistant bacteria infections” (Eur J Med Chem, 2024)
Converted amounts (≈) assume the structure as drawn. The source made the active and inactive calls. The rule behind the calls is not given here. Numbered stars: 1 amine (or outer) side, 2 acyl side, 3 side chain; on linkers, the order of the positions; unused ones are H or OH. Square brackets hold non-standard residues; d marks the D form. Peptide text beside a SMILES is read from it. * marks the point of attachment. X4 = N[C@@H](Cc1ccccc1)CN(CC(=O)[*:2])[*:1]; X1 = O=S(=O)(c1ccc(C(F)(F)F)cc1)*

What was measured:
[1] = tested on: Staphylococcus epidermidis; test: Antimicrobial activity against Staphylococcus epidermidis ATCC 12228 assessed as inhibition of visible bacterial growth incubated for 18 hrs by broth-dilution method; format: functional
Staphylococcus aureus [2] = test: Antimicrobial activity against methicillin-resistant Staphylococcus aureus 7 assessed as inhibition of visible bacterial growth incubated for 18 hrs by broth-dilution method; format: functional
Staphylococcus aureus [3] = test: Antimicrobial activity against methicillin-resistant Staphylococcus aureus 6 assessed as inhibition of visible bacterial growth incubated for 18 hrs by broth-dilution method; format: functional
Pseudomonas aeruginosa [4] = test: Antimicrobial activity against multidrug-resistant Pseudomonas aeruginosa 061 assessed as inhibition of visible bacterial growth incubated for 18 hrs by broth-dilution method; format: functional
Salmonella typhimurium = test: Antimicrobial activity against Salmonella typhimurium ATCC 14028 assessed as inhibition of visible bacterial growth incubated for 18 hrs by broth-dilution method; format: functional, Salmonella enterica subsp. enterica serovar Typhimurium; conditions: Salmonella enterica
Pseudomonas aeruginosa [5] = test: Antimicrobial activity against multidrug-resistant Pseudomonas aeruginosa 073 assessed as inhibition of visible bacterial growth incubated for 18 hrs by broth-dilution method; format: functional
Acinetobacter baumannii = test: Antimicrobial activity against Acinetobacter baumannii ATCC 19606 assessed as inhibition of visible bacterial growth incubated for 18 hrs by broth-dilution method; format: functional
Pseudomonas aeruginosa [6] = test: Antimicrobial activity against multidrug-resistant Pseudomonas aeruginosa 516 assessed as inhibition of visible bacterial growth incubated for 18 hrs by broth-dilution method; format: functional
Staphylococcus aureus [7] = test: Antimicrobial activity against methicillin-resistant Staphylococcus aureus ATCC 33591 in presence of human serum; format: functional, organism-based
Staphylococcus aureus [8] = test: Antimicrobial activity against Staphylococcus aureus ATCC 25923 in presence of human serum; format: functional, organism-based
Pseudomonas aeruginosa [9] = test: Antimicrobial activity against multidrug-resistant Pseudomonas aeruginosa 085 assessed as inhibition of visible bacterial growth incubated for 18 hrs by broth-dilution method; format: functional
[10] = Stability in human serum assessed as half life measured for 5 hrs by RP-HPLC analysis; format: ADME, cell-free
Bacillus subtilis = test: Antimicrobial activity against Bacillus subtilis ATCC 23857 assessed as inhibition of visible bacterial growth incubated for 18 hrs by broth-dilution method; format: functional
Staphylococcus aureus [11] = test: Antimicrobial activity against methicillin-resistant Staphylococcus aureus 2 assessed as inhibition of visible bacterial growth incubated for 18 hrs by broth-dilution method; format: functional
Staphylococcus aureus [12] = test: Antimicrobial activity against Staphylococcus aureus ATCC 25923 assessed as fold change in MIC in presence of salt solution; format: functional
Pseudomonas aeruginosa [13] = test: Antimicrobial activity against Pseudomonas aeruginosa ATCC 27853 assessed as inhibition of visible bacterial growth incubated for 18 hrs by broth-dilution method; format: functional
Pseudomonas aeruginosa [14] = test: Antimicrobial activity against Pseudomonas aeruginosa ATCC 27853 in presence of mouse serum; format: functional, organism-based
Staphylococcus aureus [15] = test: Antimicrobial activity against Staphylococcus aureus ATCC 25923 assessed as reduction in bacterial growth in presence of Ca2+; format: functional
Staphylococcus aureus [16] = test: Antimicrobial activity against methicillin-resistant Staphylococcus aureus 9 assessed as inhibition of visible bacterial growth incubated for 18 hrs by broth-dilution method; format: functional
Pseudomonas aeruginosa [17] = test: Antimicrobial activity against multidrug-resistant Pseudomonas aeruginosa 050 assessed as inhibition of visible bacterial growth incubated for 18 hrs by broth-dilution method; format: functional
Pseudomonas aeruginosa [18] = test: Antimicrobial activity against multidrug-resistant Pseudomonas aeruginosa 157 assessed as inhibition of visible bacterial growth incubated for 18 hrs by broth-dilution method; format: functional
Staphylococcus aureus [19] = test: Antimicrobial activity against methicillin-resistant Staphylococcus aureus 1 assessed as inhibition of visible bacterial growth incubated for 18 hrs by broth-dilution method; format: functional
Pseudomonas aeruginosa [20] = test: Antimicrobial activity against multidrug-resistant Pseudomonas aeruginosa 156 assessed as inhibition of visible bacterial growth incubated for 18 hrs by broth-dilution method; format: functional
Erythrocyte = test: Hemolytic activity against mouse Red blood cell incubated for 1 hr; format: toxicity, cell-based
Staphylococcus aureus [21] = test: Antimicrobial activity against methicillin-resistant Staphylococcus aureus 8 assessed as inhibition of visible bacterial growth incubated for 18 hrs by broth-dilution method; format: functional
Pseudomonas aeruginosa [22] = test: Antimicrobial activity against multidrug-resistant Pseudomonas aeruginosa 124 assessed as inhibition of visible bacterial growth incubated for 18 hrs by broth-dilution method; format: functional
Staphylococcus aureus [23] = test: Antimicrobial activity against Staphylococcus aureus ATCC 25923 assessed as inhibition of visible bacterial growth incubated for 18 hrs by broth-dilution method; format: functional
Staphylococcus aureus [24] = test: Antimicrobial activity against methicillin-resistant Staphylococcus aureus 4 assessed as inhibition of visible bacterial growth incubated for 18 hrs by broth-dilution method; format: functional
Staphylococcus aureus [25] = test: Antimicrobial activity against Staphylococcus aureus ATCC 25923 in presence of mouse serum; format: functional, organism-based
Escherichia coli = test: Antimicrobial activity against Escherichia coli ATCC 25922 assessed as inhibition of visible bacterial growth incubated for 18 hrs by broth-dilution method; format: functional
Staphylococcus aureus [26] = test: Antimicrobial activity against methicillin-resistant Staphylococcus aureus ATCC 33591 assessed as inhibition of visible bacterial growth incubated for 18 hrs by broth-dilution method; format: functional
Pseudomonas aeruginosa [27] = test: Antimicrobial activity against multidrug-resistant Pseudomonas aeruginosa 119 assessed as inhibition of visible bacterial growth incubated for 18 hrs by broth-dilution method; format: functional
Staphylococcus aureus [28] = test: Antimicrobial activity against methicillin-resistant Staphylococcus aureus 10 assessed as inhibition of visible bacterial growth incubated for 18 hrs by broth-dilution method; format: functional
Staphylococcus aureus [29] = test: Antimicrobial activity against methicillin-resistant Staphylococcus aureus 3 assessed as inhibition of visible bacterial growth incubated for 18 hrs by broth-dilution method; format: functional
Pseudomonas aeruginosa [30] = test: Antimicrobial activity against Pseudomonas aeruginosa ATCC 27853 in presence of human serum; format: functional, organism-based
Pseudomonas aeruginosa [31] = test: Antimicrobial activity against multidrug-resistant Pseudomonas aeruginosa 125 assessed as inhibition of visible bacterial growth incubated for 18 hrs by broth-dilution method; format: functional
Staphylococcus aureus [32] = test: Antimicrobial activity against methicillin-resistant Staphylococcus aureus 5 assessed as inhibition of visible bacterial growth incubated for 18 hrs by broth-dilution method; format: functional
Staphylococcus aureus [33] = test: Antimicrobial activity against methicillin-resistant Staphylococcus aureus ATCC 33591 in presence of mouse serum; format: functional, organism-based
Staphylococcus aureus [34] = test: Antibacterial activity against antibiotics-resistant Staphylococcus aureus ATCC 33591 assessed as reduction in microbial growth; format: functional
Pseudomonas aeruginosa [35] = test: Antibacterial activity against Pseudomonas aeruginosa ATCC 27853 infected in C57BL/6 mouse pneumonia model assessed as log reduction in bacterial load in lung at 5 mg/kg, ip administered for 1 to 48 hrs and measured after 3 days; format: functional; conditions: time 1-120 hrs
Pseudomonas aeruginosa [36] = test: Antibacterial activity against antibiotics-resistant Pseudomonas aeruginosa […] assessed as reduction in microbial growth; format: functional

Compound	MIC [1] [µg/mL]	MIC (Pseudomonas aeruginosa [4]) [µg/mL]	MIC (Salmonella typhimurium) [µg/mL]	MIC (Pseudomonas aeruginosa [5]) [µg/mL]	MIC (Acinetobacter baumannii) [µg/mL]	MIC (Pseudomonas aeruginosa [6]) [µg/mL]	MIC (Pseudomonas aeruginosa [9]) [µg/mL]	MIC (Bacillus subtilis) [µg/mL]	MIC (Pseudomonas aeruginosa [13]) [µg/mL]	MIC (Pseudomonas aeruginosa [17]) [µg/mL]	MIC (Pseudomonas aeruginosa [18]) [µg/mL]	MIC (Pseudomonas aeruginosa [20]) [µg/mL]	MIC (Pseudomonas aeruginosa [22]) [µg/mL]	MIC (Staphylococcus aureus [23]) [µg/mL]	MIC (Escherichia coli) [µg/mL]	MIC (Staphylococcus aureus [26]) [µg/mL]	MIC (Pseudomonas aeruginosa [27]) [µg/mL]	MIC (Pseudomonas aeruginosa [31]) [µg/mL]	further results
CC(C)C[C@H](NC(=O)[C@H](CC(C)C)NC(=O)[C@H](CCCCN)NC(=O)[C@H](CCCCN)NC(=O)[C@H](CC(C)C)NC(=O)[C@H](C)NC(=O)[C@H](CCCCN)NC(=O)CN(C[C@@H](N)Cc1ccccc1)S(=O)(=O)c1ccc(C(F)(F)F)cc1)C(N)=O (X1-[X4]KALKKLL-NH2)	8 (≈ 6.61 µM)	4 (≈ 3.3 µM)	16 (≈ 13.2 µM)	8 (≈ 6.61 µM)	16 (≈ 13.2 µM)	8 (≈ 6.61 µM)	8 (≈ 6.61 µM)	4 (≈ 3.3 µM)	8 (≈ 6.61 µM)	8 (≈ 6.61 µM)	4 (≈ 3.3 µM)	16 (≈ 13.2 µM)	4 (≈ 3.3 µM)	8 (≈ 6.61 µM)	16 (≈ 13.2 µM)	8 (≈ 6.61 µM)	4 (≈ 3.3 µM)	8 (≈ 6.61 µM)	MIC (Staphylococcus aureus [2]): 8 µg/mL (≈ 6.61 µM); MIC (Staphylococcus aureus [3]): 8 µg/mL (≈ 6.61 µM); Activity (Staphylococcus aureus [7]): Active; Activity (Staphylococcus aureus [8]): Active; half-life [10]: 3.93 h; MIC (Staphylococcus aureus [11]): 8 µg/mL (≈ 6.61 µM); fold change (FC) (Staphylococcus aureus [12]): 0.25; Activity (Pseudomonas aeruginosa [14]): inactive; MIC (Staphylococcus aureus [15]): 32 µg/mL; MIC (Staphylococcus aureus [16]): 8 µg/mL (≈ 6.61 µM); MIC (Staphylococcus aureus [19]): 4 µg/mL (≈ 3.3 µM); MHC (Erythrocyte): 256 µg/mL; MIC (Staphylococcus aureus [21]): 8 µg/mL (≈ 6.61 µM); MIC (Staphylococcus aureus [24]): 8 µg/mL (≈ 6.61 µM); Activity (Staphylococcus aureus [25]): inactive; MIC (Staphylococcus aureus [28]): 8 µg/mL (≈ 6.61 µM); MIC (Staphylococcus aureus [29]): 8 µg/mL (≈ 6.61 µM); Activity (Pseudomonas aeruginosa [30]): Active; MIC (Staphylococcus aureus [32]): 8 µg/mL (≈ 6.61 µM); Activity (Staphylococcus aureus [33]): inactive
CC(C)(O/N=C(\C(=O)N[C@@H]1C(=O)N2C(C(=O)[O-])=C(C[n+]3ccccc3)CS[C@H]12)c1csc(N)n1)C(=O)O [CEFTAZIDIME]	256 (≈ 468 µM)	1 (≈ 1.83 µM)	256 (≈ 468 µM)	1 (≈ 1.83 µM)	4 (≈ 7.32 µM)	1 (≈ 1.83 µM)	1 (≈ 1.83 µM)	8 (≈ 14.6 µM)	1 (≈ 1.83 µM)	1 (≈ 1.83 µM)	1 (≈ 1.83 µM)	256 (≈ 468 µM)	256 (≈ 468 µM)	4 (≈ 7.32 µM)	1 (≈ 1.83 µM)	258 (≈ 472 µM)	1 (≈ 1.83 µM)	2 (≈ 3.66 µM)	MIC (Staphylococcus aureus [34]): 32 µg/mL; log(activity) (Pseudomonas aeruginosa [35]): 4.75; MIC (Pseudomonas aeruginosa [36]): 32 µg/mL
